Data published in patent US20160158200A1, “Combinations of Hepatitis C Virus Inhibitors” (priority 2013, published 2016).

The molecules below were run on HCV genotype-1a variant with glutamine 30 changed to glutamate in the NS5A protein. Conditions: test compound titrated with BMS-790052 fixed at 200 nM; genotype 1a Q30E replicon.
Format: cell-based
How it was run: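 Synergy was assessed by combining several fixed amounts of an NS5A-targeting compound with a titration of the second compound of interest.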

Row | Compound | Fold-Synergistic 1a (Q30E) [fold]
1 | CC(C)(C)C(NC(=O)C(C)(C)C1CCC(F)(F)CO1)c1nc(-c2ccc(-c3ccc(-c4c[nH]c(C(NC(=O)C(C)(C)C5CCC(F)(F)CO5)C(C)(C)C)n4)cc3)cc2)c[nH]1 (mixture of isomers) [Compound P-155] | >100
2 | COCC(C)(C)C(=O)N[C@H](c1nc(-c2ccc(-c3ccc(-c4c[nH]c([C@@H](NC(=O)C(C)(C)COC)C(C)(C)C)n4)cc3)cc2)c[nH]1)C(C)(C)C [Compound P-12] | >100
3 | CC1([C@H](NC(=O)C(C)(C)C(C)(C)O)c2nc3ccc(C#Cc4ccc5nc([C@@H](NC(=O)C(C)(C)C(C)(C)O)C6(C)CC6)[nH]c5c4)cc3[nH]2)CC1 [Compound B68] | >100
4 | CC1CN(C(=O)C(=O)N[C@H](c2nc(-c3ccc(-c4ccc(-c5c[nH]c([C@@H](NC(=O)C(=O)N6CC(C)OC(C)C6)C(C)(C)C)n5)cc4)cc3)c[nH]2)C(C)(C)C)CC(C)O1 (single isomer, unassigned) [Compound W-40C] | >100
5 | CC1([C@H](NC(=O)C2CCC(F)(F)CC2)c2nc3ccc(C#Cc4ccc5nc([C@@H](NC(=O)C6CCC(F)(F)CC6)C6(C)CC6)[nH]c5c4)cc3[nH]2)CC1 [Compound B67] | >100
6 | CC(C)[C@H](NC(=O)C1(C)CCCC1)c1ncc(-c2ccc3c(c2)Cc2cc(-c4cnc([C@@H](NC(=O)C5(C)CCCC5)C(C)C)[nH]4)ccc2-3)[nH]1.O=C(O)C(F)(F)F [Compound N-72] | >100
7 | CC(C)(C)[C@H](NC(=O)C1(NC(=O)C(F)(F)F)CCCCC1)c1nc(-c2ccc(-c3ccc(-c4c[nH]c([C@@H](NC(=O)C5(NC(=O)C(F)(F)F)CCCCC5)C(C)(C)C)n4)cc3)cc2)c[nH]1.O=C(O)C(F)(F)F.O=C(O)C(F)(F)F [Compound W-269] | >100
8 | CN(C(=O)OC(C)(C)C)C1(C(=O)N[C@H](c2nc(-c3ccc(-c4ccc(-c5c[nH]c([C@@H](NC(=O)C6(N(C)C(=O)OC(C)(C)C)CC6)C(C)(C)C)n5)cc4)cc3)c[nH]2)C(C)(C)C)CC1.O=C(O)C(F)(F)F.O=C(O)C(F)(F)F [Compound L-13] | >100
9 | CN(C(=O)C(C)(C)C)[C@H](c1ncc(-c2ccc(-c3ccc(-c4cnc([C@@H](N(C)C(=O)C(C)(C)C)C(C)(C)C)[nH]4)cc3)cc2)[nH]1)C(C)(C)C [Compound B-207] | <10
10 | CC(C)C(=O)N[C@H](c1ncc(-c2ccc(-c3ccc(-c4cnc([C@@H](NC(=O)C(C)C)C(C)C)[nH]4)cc3)cc2)[nH]1)C(C)C [Compound S-7] | >100
11 | Cc1cc(C(=O)N[C@H](c2ncc(-c3ccc(-c4ccc(-c5cnc([C@@H](NC(=O)c6cc(C)on6)C(C)C)[nH]5)cc4)cc3)[nH]2)C(C)C)no1 [Compound S-18] | >100
12 | CC(C)(C)OC(=O)N1CC(F)(F)CC1(C)C(=O)N[C@H](c1nc(-c2ccc(-c3ccc(-c4c[nH]c([C@@H](NC(=O)C5(C)CC(F)(F)CN5C(=O)OC(C)(C)C)C(C)(C)C)n4)cc3)cc2)c[nH]1)C(C)(C)C (single isomer, unassigned) [Compound W-77] | >100
13 | CC1(C(O)C(C)(C)C(=O)N[C@H](c2nc(-c3ccc(-c4ccc(-c5c[nH]c([C@@H](NC(=O)C(C)(C)C(O)C6(C)CC6)C(C)(C)C)n5)cc4)cc3)c[nH]2)C(C)(C)C)CC1 (single isomer, unassigned) [Compound N-151B] | >100
14 | CC(C)(C)[C@H](NC(=O)C1CCC(F)(F)CC1)c1nc(-c2ccc(-c3ncc(-c4c[nH]c([C@@H](NC(=O)C5CCC(F)(F)CC5)C(C)(C)C)n4)cn3)cc2)c[nH]1 [Compound N-104] | >100
15 | CC(C)(C)[C@H](NC(=O)C1CCC(F)(F)CC1)c1ncc(C#Cc2ccc(C#Cc3cnc([C@@H](NC(=O)C4CCC(F)(F)CC4)C(C)(C)C)[nH]3)cc2)[nH]1 [Compound B60] | >100
16 | COC(C)(C)C(=O)N[C@H](c1ncc(-c2ccc(-c3ccc(-c4cnc([C@@H](NC(=O)C(C)(C)OC)C(C)C)[nH]4)cc3)cc2)[nH]1)C(C)C [Compound P-69] | >100
17 | CN1CC(F)(F)C[C@H]1C(=O)N[C@H](c1nc(-c2ccc(-c3ccc(-c4c[nH]c([C@@H](NC(=O)[C@@H]5CC(F)(F)CN5C)C(C)(C)C)n4)cc3)cc2)c[nH]1)C(C)(C)C [Compound P-35] | >100
18 | Cc1cc(-c2ccc(-c3c[nH]c([C@@H](NC(=O)C(C)(C)C)C(C)C)n3)cc2)ccc1-c1c[nH]c([C@@H](NC(=O)C(C)(C)C)C(C)C)n1 [Compound N-77] | >100
19 | CC(C)(C)[C@H](NC(=O)C12CCC(O)(CC1)CC2)c1nc(-c2ccc(-c3ccc(-c4c[nH]c([C@@H](NC(=O)C56CCC(O)(CC5)CC6)C(C)(C)C)n4)cc3)cc2)c[nH]1 [Compound W-128] | >100
20 | CC(C)CC(=O)N[C@H](c1nc(-c2ccc(-c3ccc(-c4c[nH]c([C@@H](NC(=O)CC(C)C)C(C)(C)C)n4)cc3)cc2)c[nH]1)C(C)(C)C [Compound N-117] | >100
21 | CC(C)[C@H](NC(=O)CC1CCCCCC1)c1ncc(-c2ccc(-c3ccc(-c4cnc([C@@H](NC(=O)CC5CCCCCC5)C(C)C)[nH]4)cc3)cc2)[nH]1 [Compound S-56] | >100
22 | CC(C)(C)[C@H](NC(=O)C(=O)N1CCCC1)c1nc(-c2ccc(-c3ccc(-c4c[nH]c([C@@H](NC(=O)C(=O)N5CCCC5)C(C)(C)C)n4)cc3)cc2)c[nH]1 [Compound W-21] | >100
23 | Cc1ccc(C)c(C(=O)N[C@H](c2ncc(-c3ccc(-c4ccc(-c5cnc([C@@H](NC(=O)c6cc(C)ccc6C)C(C)C)[nH]5)cc4)cc3)[nH]2)C(C)C)c1 [Compound S-71] | >100
24 | CC(C)(C)OC(=O)N1CC(C)(C)OCC1C(=O)NC(c1nc(-c2ccc(-c3ccc(-c4c[nH]c(C(NC(=O)C5COC(C)(C)CN5C(=O)OC(C)(C)C)C(C)(C)C)n4)cc3)cc2)c[nH]1)C(C)(C)C [Compound L-60] | >100
25 | CC(C)(C(=O)N[C@H](c1nc(-c2ccc(-c3ccc(-c4c[nH]c([C@@H](NC(=O)C(C)(C)C(O)c5ccccc5)C(C)(C)C)n4)cc3)cc2)c[nH]1)C(C)(C)C)C(O)c1ccccc1 (single isomer, unassigned) [Compound N-127A] | >100
26 | C#CCCC(=O)N[C@H](c1ncc(-c2ccc(-c3ccc(-c4cnc([C@@H](NC(=O)CCC#C)C(C)C)[nH]4)cc3)cc2)[nH]1)C(C)C [Compound S-44] | >100
27 | CC(C)(C)[C@H](NC(=O)C1CCC(F)(F)CC1)c1ncc(-c2ccc(-c3ccc(-c4ccc5nc([C@@H](NC(=O)C6CCC(F)(F)CC6)C(C)(C)C)[nH]c5c4)cc3)cc2)[nH]1 [Compound B56] | >100
28 | Cc1ccc(C(=O)N[C@H](c2nc(-c3ccc(-c4ccc(-c5c[nH]c([C@@H](NC(=O)c6ccc(C)s6)C(C)(C)C)n5)cc4)cc3)c[nH]2)C(C)(C)C)s1 [Compound N-64] | >100
29 | CC(C)[C@H](NC(=O)C(C)(C)C)c1nc(-c2ccc3c(c2)Cc2cc(-c4c[nH]c([C@@H](NC(=O)C(C)(C)C)C(C)C)n4)ccc2-3)c[nH]1 [Compound N-68] | >100
